# Reference: PubChem BioAssay (NCI)
#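 Five compound concentrations were applied to cells in 96-well plates for 48 hours; endpoints were derived by simple linear interpolation of the resulting dose-response curve. The concentration for 50% growth inhibition is given as GI50. Definition used: TGI = concentration required for complete inhibition of growth.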
# Legend:
# Assay in all cases: NCI anticancer screen, dose series, 48 h
# 786-0 renal = tested on: 786-0 renal
# A498 renal = tested on: A498 renal
# A549 NSCLC = tested on: A549 NSCLC
# ACHN renal = tested on: ACHN renal
# BT-549 breast = tested on: BT-549 breast
# CAKI-1 renal = tested on: CAKI-1 renal
# CCRF-CEM leukemia = tested on: CCRF-CEM leukemia
# COLO 205 colon = tested on: COLO 205 colon
# DU-145 prostate = tested on: DU-145 prostate
# EKVX NSCLC = tested on: EKVX NSCLC
# HCC-2998 colon = tested on: HCC-2998 colon
# HCT-116 colon = tested on: HCT-116 colon
# HCT-15 colon = tested on: HCT-15 colon
# HL-60(TB) leukemia = tested on: HL-60(TB) leukemia
# HOP-62 NSCLC = tested on: HOP-62 NSCLC
# HOP-92 NSCLC = tested on: HOP-92 NSCLC
# HS 578T breast = tested on: HS 578T breast
# HT29 colon = tested on: HT29 colon
# IGROV1 ovarian = tested on: IGROV1 ovarian
# K-562 leukemia = tested on: K-562 leukemia
# KM12 colon = tested on: KM12 colon
# LOX IMVI melanoma = tested on: LOX IMVI melanoma
# M14 melanoma = tested on: M14 melanoma
# MALME-3M melanoma = tested on: MALME-3M melanoma
# MCF7 breast = tested on: MCF7 breast
# MDA-MB-231 breast = tested on: MDA-MB-231 breast
# MDA-MB-435 = tested on: MDA-MB-435
# MOLT-4 leukemia = tested on: MOLT-4 leukemia
# NCI-H226 lung = tested on: NCI-H226 lung
# NCI-H23 lung = tested on: NCI-H23 lung
# NCI-H460 lung = tested on: NCI-H460 lung
# NCI-H522 lung = tested on: NCI-H522 lung
# NCI/ADR-RES ovarian = tested on: NCI/ADR-RES ovarian
# OVCAR-3 ovarian = tested on: OVCAR-3 ovarian
# OVCAR-5 ovarian = tested on: OVCAR-5 ovarian
# OVCAR-8 ovarian = tested on: OVCAR-8 ovarian
# PC-3 prostate = tested on: PC-3 prostate
# RPMI-8226 leukemia = tested on: RPMI-8226 leukemia
# RXF 393 renal = tested on: RXF 393 renal
# SF-268 CNS = tested on: SF-268 CNS
# SF-295 CNS = tested on: SF-295 CNS
# SF-539 CNS = tested on: SF-539 CNS
# SK-MEL-2 melanoma = tested on: SK-MEL-2 melanoma
# SK-MEL-28 melanoma = tested on: SK-MEL-28 melanoma
# SK-MEL-5 melanoma = tested on: SK-MEL-5 melanoma
# SK-OV-3 ovarian = tested on: SK-OV-3 ovarian
# SN12C renal = tested on: SN12C renal
# SNB-19 CNS = tested on: SNB-19 CNS
# SNB-75 CNS = tested on: SNB-75 CNS
# SR leukemia = tested on: SR leukemia
# SW-620 colon = tested on: SW-620 colon
# T-47D breast = tested on: T-47D breast
# TK-10 renal = tested on: TK-10 renal
# U251 CNS = tested on: U251 CNS
# UACC-257 melanoma = tested on: UACC-257 melanoma
# UACC-62 melanoma = tested on: UACC-62 melanoma
# UO-31 renal = tested on: UO-31 renal
compound,measurement,setting,value
CC(C)(C)c1ccc(CC(=O)Nc2sc3c(c2C(N)=O)CCC(=O)C3)cc1,GI50,786-0 renal,1.39 µM
same,TGI,786-0 renal,11.8 µM
same,GI50,A498 renal,2.05 µM
same,TGI,A498 renal,6.97 µM
same,GI50,A549 NSCLC,1.99 µM
same,TGI,A549 NSCLC,6.92 µM
same,GI50,ACHN renal,0.374 µM
same,TGI,ACHN renal,1.31 µM
same,GI50,BT-549 breast,0.48 µM
same,TGI,BT-549 breast,2.4 µM
same,GI50,CAKI-1 renal,0.395 µM
same,TGI,CAKI-1 renal,3.01 µM
same,GI50,CCRF-CEM leukemia,0.137 µM
same,TGI,CCRF-CEM leukemia,3.62 µM
same,GI50,COLO 205 colon,1.33 µM
same,TGI,COLO 205 colon,3.02 µM
same,GI50,DU-145 prostate,3.17 µM
same,TGI,DU-145 prostate,14 µM
same,GI50,EKVX NSCLC,0.549 µM
same,TGI,EKVX NSCLC,3.54 µM
same,GI50,HCC-2998 colon,1.49 µM
same,TGI,HCC-2998 colon,3.88 µM
same,GI50,HCT-116 colon,0.26 µM
same,TGI,HCT-116 colon,1.29 µM
same,GI50,HCT-15 colon,0.295 µM
same,TGI,HCT-15 colon,2.11 µM
same,GI50,HL-60(TB) leukemia,0.423 µM
same,TGI,HL-60(TB) leukemia,3.11 µM
same,GI50,HOP-62 NSCLC,2.69 µM
same,TGI,HOP-62 NSCLC,13.2 µM
same,GI50,HOP-92 NSCLC,0.464 µM
same,TGI,HOP-92 NSCLC,1.85 µM
same,GI50,HS 578T breast,1.98 µM
same,TGI,HS 578T breast,10.9 µM
same,GI50,HT29 colon,0.871 µM
same,TGI,HT29 colon,8.43 µM
same,GI50,IGROV1 ovarian,0.532 µM
same,TGI,IGROV1 ovarian,3.1 µM
same,GI50,K-562 leukemia,0.233 µM
same,TGI,K-562 leukemia,4.94 µM
same,GI50,KM12 colon,0.88 µM
same,TGI,KM12 colon,3.16 µM
same,GI50,LOX IMVI melanoma,0.46 µM
same,TGI,LOX IMVI melanoma,3.41 µM
same,GI50,M14 melanoma,0.435 µM
same,TGI,M14 melanoma,2.69 µM
same,GI50,MALME-3M melanoma,0.692 µM
same,TGI,MALME-3M melanoma,2.35 µM
same,GI50,MCF7 breast,0.433 µM
same,TGI,MCF7 breast,6.66 µM
same,GI50,MDA-MB-231 breast,1.17 µM
same,TGI,MDA-MB-231 breast,3.29 µM
same,GI50,MDA-MB-435,1.3 µM
same,TGI,MDA-MB-435,4.21 µM
same,GI50,MOLT-4 leukemia,0.569 µM
same,TGI,MOLT-4 leukemia,8.21 µM
same,GI50,NCI-H226 lung,1.7 µM
same,TGI,NCI-H226 lung,4.14 µM
same,GI50,NCI-H23 lung,0.34 µM
same,TGI,NCI-H23 lung,3.59 µM
same,GI50,NCI-H460 lung,1.03 µM
same,TGI,NCI-H460 lung,8.06 µM
same,GI50,NCI-H522 lung,0.283 µM
same,TGI,NCI-H522 lung,2.59 µM
same,GI50,NCI/ADR-RES ovarian,0.621 µM
same,TGI,NCI/ADR-RES ovarian,5.11 µM
same,GI50,OVCAR-3 ovarian,0.541 µM
same,TGI,OVCAR-3 ovarian,2.09 µM
same,GI50,OVCAR-5 ovarian,0.901 µM
same,TGI,OVCAR-5 ovarian,2.99 µM
same,GI50,OVCAR-8 ovarian,0.458 µM
same,TGI,OVCAR-8 ovarian,24.7 µM
same,GI50,PC-3 prostate,0.207 µM
same,TGI,PC-3 prostate,1.9 µM
same,GI50,RPMI-8226 leukemia,0.221 µM
same,TGI,RPMI-8226 leukemia,0.691 µM
same,GI50,RXF 393 renal,0.594 µM
same,TGI,RXF 393 renal,1.98 µM
same,GI50,SF-268 CNS,2.82 µM
same,TGI,SF-268 CNS,12.7 µM
same,GI50,SF-295 CNS,1.18 µM
same,TGI,SF-295 CNS,3.18 µM
same,GI50,SF-539 CNS,0.421 µM
same,TGI,SF-539 CNS,1.67 µM
same,GI50,SK-MEL-2 melanoma,2.29 µM
same,TGI,SK-MEL-2 melanoma,6.64 µM
same,GI50,SK-MEL-28 melanoma,1.38 µM
same,TGI,SK-MEL-28 melanoma,3.16 µM
same,GI50,SK-MEL-5 melanoma,1.23 µM
same,TGI,SK-MEL-5 melanoma,2.58 µM
same,GI50,SK-OV-3 ovarian,2.77 µM
same,TGI,SK-OV-3 ovarian,8.04 µM
same,GI50,SN12C renal,1.04 µM
same,TGI,SN12C renal,3.91 µM
same,GI50,SNB-19 CNS,1.09 µM
same,TGI,SNB-19 CNS,4.69 µM
same,GI50,SNB-75 CNS,1.3 µM
same,TGI,SNB-75 CNS,4.28 µM
same,GI50,SR leukemia,0.132 µM
same,GI50,SW-620 colon,0.386 µM
same,TGI,SW-620 colon,2.16 µM
same,GI50,T-47D breast,0.368 µM
same,TGI,T-47D breast,2.67 µM
same,GI50,TK-10 renal,0.473 µM
same,TGI,TK-10 renal,8.48 µM
same,GI50,U251 CNS,0.389 µM
same,TGI,U251 CNS,2.25 µM
same,GI50,UACC-257 melanoma,2.04 µM
same,TGI,UACC-257 melanoma,5.86 µM
same,GI50,UACC-62 melanoma,0.54 µM
same,TGI,UACC-62 melanoma,2.07 µM
same,GI50,UO-31 renal,0.43 µM
same,TGI,UO-31 renal,1.68 µM
